ChEMBL document CHEMBL4507268 (2021)

Experiments:
[1] = molecular target: Alpha-2B adrenergic receptor (Homo sapiens) (UniProt P18089); conditions: Compound concentration 10.0 uM
[2] = molecular target: T1, Mitogen-activated protein kinase kinase kinase 5 (Homo sapiens) (UniProt Q99683); conditions: Compound concentration 1.0 uM
T1 sequence (whole entry): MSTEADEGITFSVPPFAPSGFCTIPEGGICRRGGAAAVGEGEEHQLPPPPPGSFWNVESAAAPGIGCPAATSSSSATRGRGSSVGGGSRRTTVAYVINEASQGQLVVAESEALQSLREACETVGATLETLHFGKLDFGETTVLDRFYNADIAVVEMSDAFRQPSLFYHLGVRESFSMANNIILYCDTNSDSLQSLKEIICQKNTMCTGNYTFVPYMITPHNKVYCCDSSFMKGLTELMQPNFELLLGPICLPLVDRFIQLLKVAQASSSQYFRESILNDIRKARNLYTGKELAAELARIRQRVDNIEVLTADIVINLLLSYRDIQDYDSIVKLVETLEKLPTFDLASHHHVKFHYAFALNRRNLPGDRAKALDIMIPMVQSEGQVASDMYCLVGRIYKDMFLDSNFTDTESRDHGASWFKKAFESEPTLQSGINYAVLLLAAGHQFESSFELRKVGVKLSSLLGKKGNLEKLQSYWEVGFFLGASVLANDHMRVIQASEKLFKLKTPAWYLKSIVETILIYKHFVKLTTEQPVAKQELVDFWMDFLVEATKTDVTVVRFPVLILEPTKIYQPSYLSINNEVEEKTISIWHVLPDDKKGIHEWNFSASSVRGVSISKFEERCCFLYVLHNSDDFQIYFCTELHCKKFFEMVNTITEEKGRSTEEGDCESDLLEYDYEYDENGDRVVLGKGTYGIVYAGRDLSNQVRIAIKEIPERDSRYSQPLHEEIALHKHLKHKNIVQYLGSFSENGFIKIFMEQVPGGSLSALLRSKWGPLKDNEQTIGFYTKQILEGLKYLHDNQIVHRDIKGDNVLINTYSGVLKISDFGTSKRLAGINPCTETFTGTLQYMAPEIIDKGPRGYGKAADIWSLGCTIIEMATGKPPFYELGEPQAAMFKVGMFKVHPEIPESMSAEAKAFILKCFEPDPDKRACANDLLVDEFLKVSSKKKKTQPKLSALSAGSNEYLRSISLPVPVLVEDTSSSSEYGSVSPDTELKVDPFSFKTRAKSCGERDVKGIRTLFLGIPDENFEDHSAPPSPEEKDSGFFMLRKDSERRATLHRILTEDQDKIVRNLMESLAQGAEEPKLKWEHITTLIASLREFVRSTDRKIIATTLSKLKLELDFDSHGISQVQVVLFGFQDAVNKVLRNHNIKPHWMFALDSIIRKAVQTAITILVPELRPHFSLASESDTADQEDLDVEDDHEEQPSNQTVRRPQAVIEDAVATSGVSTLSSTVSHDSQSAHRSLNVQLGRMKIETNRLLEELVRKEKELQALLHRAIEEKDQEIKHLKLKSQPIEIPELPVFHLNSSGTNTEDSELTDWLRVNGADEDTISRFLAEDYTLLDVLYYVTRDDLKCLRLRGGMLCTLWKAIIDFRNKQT

[3] = molecular target: Tyrosine-protein kinase Fes/Fps (Homo sapiens) (UniProt P07332); conditions: Compound concentration 1.0 uM
Chain of Tyrosine-protein kinase Fes/Fps (Homo sapiens) (P07332 whole entry): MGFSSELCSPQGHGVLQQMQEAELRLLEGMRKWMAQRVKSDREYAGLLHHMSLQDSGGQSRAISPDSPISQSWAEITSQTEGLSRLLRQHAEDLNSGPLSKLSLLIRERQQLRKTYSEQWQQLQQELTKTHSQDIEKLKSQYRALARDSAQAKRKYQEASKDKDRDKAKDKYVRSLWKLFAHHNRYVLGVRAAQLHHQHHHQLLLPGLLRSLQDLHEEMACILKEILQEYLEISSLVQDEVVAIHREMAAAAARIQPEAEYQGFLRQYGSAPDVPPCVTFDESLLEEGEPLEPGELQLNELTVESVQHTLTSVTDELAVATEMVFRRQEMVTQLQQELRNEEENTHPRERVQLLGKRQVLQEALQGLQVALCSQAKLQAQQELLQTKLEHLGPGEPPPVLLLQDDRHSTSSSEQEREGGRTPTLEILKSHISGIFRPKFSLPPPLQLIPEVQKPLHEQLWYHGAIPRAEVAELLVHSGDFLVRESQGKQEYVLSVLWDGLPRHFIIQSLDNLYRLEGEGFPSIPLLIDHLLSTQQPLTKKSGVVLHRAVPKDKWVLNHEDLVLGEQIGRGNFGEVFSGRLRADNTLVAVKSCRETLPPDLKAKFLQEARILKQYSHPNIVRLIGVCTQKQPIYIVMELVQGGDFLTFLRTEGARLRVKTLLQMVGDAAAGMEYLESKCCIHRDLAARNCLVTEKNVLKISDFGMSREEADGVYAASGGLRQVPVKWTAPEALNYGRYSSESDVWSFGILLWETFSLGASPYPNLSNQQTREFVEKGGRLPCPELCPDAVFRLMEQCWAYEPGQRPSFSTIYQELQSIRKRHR

[4] = molecular target: Macrophage colony-stimulating factor 1 receptor (Homo sapiens) (UniProt P07333); conditions: Compound concentration 1.0 uM
Chain of Macrophage colony-stimulating factor 1 receptor (Homo sapiens) (P07333 whole entry): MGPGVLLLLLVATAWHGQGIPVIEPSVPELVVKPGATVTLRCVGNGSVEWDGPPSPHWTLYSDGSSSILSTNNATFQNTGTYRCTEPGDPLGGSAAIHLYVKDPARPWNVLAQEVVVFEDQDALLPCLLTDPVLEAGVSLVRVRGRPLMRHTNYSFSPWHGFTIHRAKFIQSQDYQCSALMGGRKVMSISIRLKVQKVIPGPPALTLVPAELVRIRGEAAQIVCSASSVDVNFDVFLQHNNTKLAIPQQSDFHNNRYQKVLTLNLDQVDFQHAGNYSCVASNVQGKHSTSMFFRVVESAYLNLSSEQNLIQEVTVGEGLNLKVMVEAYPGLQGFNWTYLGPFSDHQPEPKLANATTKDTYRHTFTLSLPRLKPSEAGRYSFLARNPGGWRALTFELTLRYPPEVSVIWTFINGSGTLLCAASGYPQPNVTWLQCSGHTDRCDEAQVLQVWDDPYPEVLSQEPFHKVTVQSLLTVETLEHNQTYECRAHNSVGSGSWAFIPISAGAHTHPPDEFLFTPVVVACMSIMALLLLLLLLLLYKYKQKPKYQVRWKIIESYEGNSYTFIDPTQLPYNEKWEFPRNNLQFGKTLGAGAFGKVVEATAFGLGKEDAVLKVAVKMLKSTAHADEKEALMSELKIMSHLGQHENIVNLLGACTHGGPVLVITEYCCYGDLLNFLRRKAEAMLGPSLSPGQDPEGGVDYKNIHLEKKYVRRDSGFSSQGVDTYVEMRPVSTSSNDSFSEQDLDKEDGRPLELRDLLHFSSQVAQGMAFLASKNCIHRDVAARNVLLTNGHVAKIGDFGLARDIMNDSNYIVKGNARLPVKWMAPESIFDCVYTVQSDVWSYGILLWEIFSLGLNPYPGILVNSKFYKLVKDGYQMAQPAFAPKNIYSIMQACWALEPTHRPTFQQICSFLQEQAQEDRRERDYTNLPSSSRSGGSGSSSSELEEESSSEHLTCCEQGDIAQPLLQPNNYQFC

[5] = molecular target: Tyrosine-protein kinase Lck (Homo sapiens) (UniProt P06239); conditions: Compound concentration 1.0 uM
Chain of Tyrosine-protein kinase Lck (Homo sapiens) (P06239 2-509 limits assumed): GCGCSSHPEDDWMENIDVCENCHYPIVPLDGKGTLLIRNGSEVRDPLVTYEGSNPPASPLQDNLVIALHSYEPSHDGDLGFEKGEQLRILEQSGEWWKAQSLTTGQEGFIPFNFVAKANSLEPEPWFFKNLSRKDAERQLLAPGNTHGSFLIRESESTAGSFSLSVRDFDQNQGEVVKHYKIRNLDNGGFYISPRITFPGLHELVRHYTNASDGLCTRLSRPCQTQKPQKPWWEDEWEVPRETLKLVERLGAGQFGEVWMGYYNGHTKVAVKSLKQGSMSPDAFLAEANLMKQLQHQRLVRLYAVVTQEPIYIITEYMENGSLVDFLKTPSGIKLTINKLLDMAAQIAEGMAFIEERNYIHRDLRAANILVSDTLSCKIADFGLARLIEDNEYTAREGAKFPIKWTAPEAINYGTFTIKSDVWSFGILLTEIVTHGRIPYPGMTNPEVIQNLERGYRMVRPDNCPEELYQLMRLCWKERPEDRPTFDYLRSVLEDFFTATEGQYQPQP

[6] = molecular target: RAC-beta serine/threonine-protein kinase (Homo sapiens) (UniProt P31751); conditions: Compound concentration 1.0 uM
Chain of RAC-beta serine/threonine-protein kinase (Homo sapiens) (P31751 whole entry): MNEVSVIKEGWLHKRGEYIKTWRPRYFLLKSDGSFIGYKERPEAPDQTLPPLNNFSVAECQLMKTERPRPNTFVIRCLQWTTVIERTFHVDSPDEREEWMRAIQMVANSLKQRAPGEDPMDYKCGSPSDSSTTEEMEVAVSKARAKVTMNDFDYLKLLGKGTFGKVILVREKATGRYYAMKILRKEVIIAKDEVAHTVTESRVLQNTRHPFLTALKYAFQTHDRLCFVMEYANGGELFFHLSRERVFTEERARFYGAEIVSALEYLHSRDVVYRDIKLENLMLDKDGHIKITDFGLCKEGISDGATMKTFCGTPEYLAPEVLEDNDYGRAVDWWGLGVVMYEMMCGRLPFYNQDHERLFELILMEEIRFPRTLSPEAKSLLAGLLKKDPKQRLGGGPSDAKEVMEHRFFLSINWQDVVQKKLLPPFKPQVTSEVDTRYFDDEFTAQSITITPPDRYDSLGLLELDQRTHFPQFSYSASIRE

[7] = molecular target: Proto-oncogene tyrosine-protein kinase ROS (Homo sapiens) (UniProt P08922); conditions: Compound concentration 1.0 uM
[8] = molecular target: STE20-like serine/threonine-protein kinase (Homo sapiens) (UniProt Q9H2G2); conditions: Compound concentration 1.0 uM
[9] = molecular target: T2, SNF-related serine/threonine-protein kinase (Homo sapiens) (UniProt Q9NRH2); conditions: Compound concentration 1.0 uM
T2 sequence (whole entry): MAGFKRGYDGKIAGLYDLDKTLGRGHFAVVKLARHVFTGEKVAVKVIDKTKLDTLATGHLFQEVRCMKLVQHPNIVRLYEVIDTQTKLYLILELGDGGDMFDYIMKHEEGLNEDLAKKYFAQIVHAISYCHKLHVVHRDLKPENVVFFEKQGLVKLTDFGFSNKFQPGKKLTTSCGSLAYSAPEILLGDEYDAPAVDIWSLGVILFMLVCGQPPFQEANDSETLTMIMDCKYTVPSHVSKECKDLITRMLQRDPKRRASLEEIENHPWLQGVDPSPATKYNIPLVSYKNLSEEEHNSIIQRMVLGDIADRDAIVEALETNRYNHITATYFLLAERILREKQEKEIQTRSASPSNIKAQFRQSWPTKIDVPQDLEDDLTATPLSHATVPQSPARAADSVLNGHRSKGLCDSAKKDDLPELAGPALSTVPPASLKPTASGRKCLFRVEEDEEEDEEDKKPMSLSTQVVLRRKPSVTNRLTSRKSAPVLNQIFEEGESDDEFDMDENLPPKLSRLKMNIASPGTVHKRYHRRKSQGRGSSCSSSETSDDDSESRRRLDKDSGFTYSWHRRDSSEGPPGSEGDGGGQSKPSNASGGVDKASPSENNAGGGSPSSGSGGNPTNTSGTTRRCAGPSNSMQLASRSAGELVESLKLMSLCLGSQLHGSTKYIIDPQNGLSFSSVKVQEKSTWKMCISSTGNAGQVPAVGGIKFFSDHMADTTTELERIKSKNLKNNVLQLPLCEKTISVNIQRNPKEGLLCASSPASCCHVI

[10] = molecular target: Serine/threonine-protein kinase 32B (Homo sapiens) (UniProt Q9NY57); conditions: Compound concentration 1.0 uM
Chain of Serine/threonine-protein kinase 32B (Homo sapiens) (Q9NY57 whole entry): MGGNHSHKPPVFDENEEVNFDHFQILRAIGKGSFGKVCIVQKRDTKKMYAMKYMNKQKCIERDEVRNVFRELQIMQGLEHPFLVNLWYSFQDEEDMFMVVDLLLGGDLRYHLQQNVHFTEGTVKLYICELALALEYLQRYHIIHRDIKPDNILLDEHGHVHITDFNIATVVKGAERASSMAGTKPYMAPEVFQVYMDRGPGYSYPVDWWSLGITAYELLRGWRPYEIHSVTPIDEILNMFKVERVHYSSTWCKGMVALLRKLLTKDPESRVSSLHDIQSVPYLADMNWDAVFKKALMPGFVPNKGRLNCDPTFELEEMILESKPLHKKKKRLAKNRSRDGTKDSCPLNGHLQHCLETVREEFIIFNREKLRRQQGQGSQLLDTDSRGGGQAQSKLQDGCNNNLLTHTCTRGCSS

[11] = molecular target: High affinity nerve growth factor receptor (Homo sapiens) (UniProt P04629); conditions: Compound concentration 1.0 uM
[12] = molecular target: Testis-specific serine/threonine-protein kinase 2 (Homo sapiens) (UniProt Q96PF2); conditions: Compound concentration 1.0 uM
Chain of Testis-specific serine/threonine-protein kinase 2 (Homo sapiens) (Q96PF2 whole entry): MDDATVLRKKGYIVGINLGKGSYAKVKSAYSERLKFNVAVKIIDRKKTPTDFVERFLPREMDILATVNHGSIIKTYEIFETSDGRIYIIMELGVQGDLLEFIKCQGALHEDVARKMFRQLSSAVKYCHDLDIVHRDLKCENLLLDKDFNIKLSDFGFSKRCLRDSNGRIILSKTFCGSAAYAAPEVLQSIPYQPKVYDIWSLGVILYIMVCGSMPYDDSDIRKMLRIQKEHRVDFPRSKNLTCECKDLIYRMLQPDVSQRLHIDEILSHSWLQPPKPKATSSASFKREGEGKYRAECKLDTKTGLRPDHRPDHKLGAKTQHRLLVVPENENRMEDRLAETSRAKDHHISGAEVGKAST

[13] = molecular target: Phosphatidylinositol 4-phosphate 5-kinase type-1 alpha (Homo sapiens) (UniProt Q99755); conditions: Compound concentration 1.0 uM
Chain of Phosphatidylinositol 4-phosphate 5-kinase type-1 alpha (Homo sapiens) (Q99755 whole entry): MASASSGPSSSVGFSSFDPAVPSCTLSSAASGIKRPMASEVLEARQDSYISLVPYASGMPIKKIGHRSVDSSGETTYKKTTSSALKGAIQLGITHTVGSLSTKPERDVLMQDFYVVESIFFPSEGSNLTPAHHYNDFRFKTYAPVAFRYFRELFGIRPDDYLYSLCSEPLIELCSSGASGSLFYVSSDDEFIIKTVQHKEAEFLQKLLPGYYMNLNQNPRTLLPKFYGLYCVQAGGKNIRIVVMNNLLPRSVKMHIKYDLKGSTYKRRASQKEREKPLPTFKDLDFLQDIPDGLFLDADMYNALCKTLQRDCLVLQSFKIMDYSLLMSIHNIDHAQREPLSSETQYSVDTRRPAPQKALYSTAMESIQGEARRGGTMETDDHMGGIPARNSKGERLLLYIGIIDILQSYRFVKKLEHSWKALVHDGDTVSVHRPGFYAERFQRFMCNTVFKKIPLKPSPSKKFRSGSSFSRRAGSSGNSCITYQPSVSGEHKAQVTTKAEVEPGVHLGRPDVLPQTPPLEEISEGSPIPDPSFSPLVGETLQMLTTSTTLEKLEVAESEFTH

Chain of Alpha-2B adrenergic receptor (Homo sapiens) (P18089 whole entry): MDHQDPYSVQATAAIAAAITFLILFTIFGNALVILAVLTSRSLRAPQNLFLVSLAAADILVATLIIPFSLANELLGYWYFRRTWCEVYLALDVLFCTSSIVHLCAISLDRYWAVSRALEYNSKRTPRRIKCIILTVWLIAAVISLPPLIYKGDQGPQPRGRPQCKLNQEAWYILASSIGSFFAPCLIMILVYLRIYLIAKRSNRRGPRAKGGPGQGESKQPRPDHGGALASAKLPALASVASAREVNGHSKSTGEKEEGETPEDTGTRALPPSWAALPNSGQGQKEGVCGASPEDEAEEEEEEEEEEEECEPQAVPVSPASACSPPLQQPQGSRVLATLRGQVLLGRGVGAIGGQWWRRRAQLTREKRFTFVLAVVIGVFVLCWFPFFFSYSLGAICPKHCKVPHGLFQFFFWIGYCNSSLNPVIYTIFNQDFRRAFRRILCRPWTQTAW

CN1CCN(c2cnc3c(C4CCN(C(=O)c5ccc(OC(F)(F)F)cc5N)CC4)ncnc3c2)CC1 [BAY-885]
inactive: inhibition [1] -8.47% | % residual kinase activity [2] 99% | % residual kinase activity [3] 108% | % residual kinase activity [4] 118% | % residual kinase activity [5] 98% | % residual kinase activity [6] 109% | % residual kinase activity [7] 111% | % residual kinase activity [8] 87% | % residual kinase activity [9] 118% | % residual kinase activity [10] 98% | % residual kinase activity [11] 110% | % residual kinase activity [12] 113% | % residual kinase activity [13] 98%
